Source: the NIST ThermoML archive (doi:10.1021/je100603q)
± gives the expanded uncertainty stated by the source.

Assays:
[1] = molar enthalpy of vaporization or sublimation; details: 298.15 K; Crystal; Microcalorimetry
[2] = molar enthalpy of transition or fusion; details: 298.15 K; Crystal; Microcalorimetry

| molar enthalpy [1] [kcal/mol] | molar enthalpy of transition or fusion [2] [kcal/mol] | Structure (SMILES) |
| --- | --- | --- |
| 17.5 ± 0.669 |  | O=C1CCSCC1 [tetrahydro-4H-thiopyran-4-one] |
|  | 25.5 ± 0.574 | O=c1c2ccccc2sc2ccccc12 [thioxanthone] |
